Numbered stars: 1 amine (or outer) side, 2 acyl side, 3 side chain; on linkers, the order of the positions; unused ones are H or OH. Bridge positions count the residues as written; N and C are the ends. Square brackets hold non-standard residues; d marks the D form. Side chains are listed from the residue outwards. Peptide text beside a SMILES is read from it. * marks the point of attachment. X1 = O=C([C@H](Cc1ccc(-n2nnc3c2-c2ccccc2CN([*:3])c2ccccc2-3)cc1)N[*:1])[*:2]; X2 = Cc1c(CC(=O)*)c(=O)oc2cc(N)ccc12; βAla = NCCC(=O)O
Tests used:
[1] = tested on: porcine pancreatic trypsin; assay: Binding to commercial porcine pancreatic trypsin; conditions: Fig. S8
[2] = cited from earlier work

| Compound | binding to porcine pancreatic trypsin ([1]; commercial trypsin) | effect of the fluorophore in loop 2 on biological activity ([1]; trypsin binding) | oral uterotonic activity [2] |
| --- | --- | --- | --- |
| CC[C@H](C)[C@@H]1NC(=O)[C@@H]2CSSC[C@@H]3NC(=O)[C@H](C(C)C)NC(=O)CNC(=O)CNC(=O)[C@H](CC(=O)O)NC(=O)[C@H](CO)NC(=O)CNC(=O)[C@H](CO)NC(=O)CNC(=O)[C@@H]4CSSC[C@H](NC(=O)[C@H](CC(=O)O)NC(=O)[C@H](CO)NC(=O)[C@H](Cc5ccc(-n6nnc7c6-c6ccccc6CN(C(=O)CCNC(=O)Cc6c(C)c8ccc(N)cc8oc6=O)c6ccccc6-7)cc5)NC(=O)[C@H](CCCNC(=N)N)NC(=O)[C@H](CCCNC(=N)N)NC(=O)[C@H](CSSC[C@H](NC1=O)C(=O)N[C@@H](CCCNC(=N)N)C(=O)NCC(=O)N[C@@H](CC(N)=O)C(=O)NCC(=O)N[C@@H](Cc1ccc(O)cc1)C(=O)N4)NC(=O)[C@H](CCCNC(=N)N)NC(=O)[C@H](CCC(N)=O)NC(=O)[C@H](CC(C)C)NC(=O)[C@H]([C@@H](C)CC)NC(=O)[C@H](CCCCN)NC(=O)[C@@H]1CCCN1C3=O)C(=O)N1CCC[C@H]1C(=O)NCC(=O)N[C@@H](C)C(=O)N2 [AMCA-labeled MCoTI-AziF] (cyclo(ACICRGNGYCGSGSDGGVCPKILQRCRR[X1]([βAla-X2])SDCPG); disulfide 2-19, 4-26, 10-32) | able to bind commercial porcine pancreatic trypsin efficiently | did not have a detrimental effect on its biological activity |  |
| kalata B1: the first cyclotide to be discovered (GLPVCGETCVGGTCNTPGCTCSWPVCTRN; Kalata-B1; UniProt P56254 89-117, looked up) |  |  | orally effective uterotonic |
